Data from US20060154990A1, “Use of MEK inhibitors in treating abnormal cell growth” (AGOURON PHARMACEUTICALS, INC., priority 2004, published 2006).
Values joined by “and” are separate entries in the source; they are usually repeats but may differ in a detail not shown here. Equal entries are not always repeated.

What was measured:
[1] = Metabolites of [14C] Compound 1 in cryopreserved hepatocytes; format: in vitro ADME, dog; settings: [C-14] Compound 1 10 μM, 180 mins
Description: (§1) Incubations were performed in hepatocytes for 3 hours and liver microsomes for 1.5 hours and were stopped with the addition of methanol. HPLC, in conjuction with ionspray 3D iontrap mass spectrometry, and simultaneous radioactive monitoring were used to detect and identify the resulting metabolites.
(§2) Metabolite identification of radiolabeled Compound 1 was performed after incubation with rat, dog, monkey and human cryopreserved hepatocytes and liver microsomes. […] Besides glucuronidation, metabolites derived from other clearance pathways are also observed. For instance, M 15 (acid cleavage product) accounts for 11% of the total radioactivity in the human chromatogram.

[2] = as above; format: in vitro ADME, human; settings: [C-14] Compound 1 10 μM, 180 mins, listed as M 15
Description: as §1, §2

[3] = Metabolites of [14C] Compound 1 in liver microsomes; format: in vitro ADME, dog; settings: [C-14] Compound 1 10 μM, 90 mins
Description: as §1
(§3) This acid cleavage product is further metabolized to form hydroxylated (M 11, 16% in rat) and hydroxylated, defluorinated products (M 17, 19% in rat).

[4] = as above; format: in vitro ADME, rat; settings: [C-14] Compound 1 10 μM, 90 mins
Description: as §1, §3

[5] = test system: ERK phosphorylation in tumor cells; assay: ERK phosphorylation in tumor cells grown in culture with 10% serum; format: cell-based; settings: tumor cells in culture, 10% serum; read-out: IC50, reducing ERK phosphorylation
[6] = Metabolites of [14C] Compound 1 in cryopreserved hepatocytes; format: in vitro ADME, rat; settings: [C-14] Compound 1 10 μM, 180 mins
Description: as §1, §2

[7] = Metabolites of [14C] Compound 1 in liver microsomes; format: in vitro ADME, monkey; settings: [C-14] Compound 1 10 μM, 90 mins
Description: as §1, §3

[8] = Metabolites of [14C] Compound 1 in cryopreserved hepatocytes; format: in vitro ADME, monkey; settings: [C-14] Compound 1 10 μM, 180 mins
Description: as §1, §2

[9] = Plasma pharmacokinetics after multiple oral doses in advanced cancer patients; settings: for AUC of Compound 2 as % of the parent (median): human plasma
Description: Pharmacokinetic data are presented for the first 38 subjects.
Blood samples were collected from patients into a purple-top potassium EDTA Vacutainer tube. Following mixing with gentle inversion (8-10 times), tubes were centrifuged within 20 minutes at 1000×g for 15 minutes, to harvest plasma. Plasma samples were stored at −20° C. until analysis.
The following results are based on preliminary pharmacokinetic parameters from the 38 subjects, estimated using nominal collection times and quality-controlled, non quality-assured bioanalytical data. Pharmacokinetic parameters were determined by the non-compartmental method using WINNONLIN Professional Edition (Version 4.1). […] The maximum observed concentration (Cmax) was obtained by inspection of the concentration data. The time to reach the Cmax was the first time at which Cmax is observed and obtained by inspection of the data. The pre-dose concentration (Ctrough) was obtained by inspection of the concentration data.

MEK1 = MEK1 (Homo sapiens, UniProt Q02750); assay: Cascade assay with raf-1, MEK1 and ERK1 (DELFIA readout); format: biochemical; settings: purified MEK1, cascade assay raf-1/MEK1/ERK1; read-out: MEK enzyme IC50
[10] = Metabolites of [14C] Compound 1 in liver microsomes; format: in vitro ADME, human; settings: [C-14] Compound 1 10 μM, 90 mins, listed as M 15
Description: as §1, §3

pERK in C26 tumors = assay: Tumor pERK inhibition and PK-PD in C26 tumor-bearing mice; format: in vivo; settings: C26 tumor-bearing animals
[11] = test system: ERK phosphorylation in colon 26 cells; assay: cells; settings: Mus musculus, Colon 26, read-out: Cellular activity IC50

Chain of MEK1 (Q02750 whole entry, species assumed): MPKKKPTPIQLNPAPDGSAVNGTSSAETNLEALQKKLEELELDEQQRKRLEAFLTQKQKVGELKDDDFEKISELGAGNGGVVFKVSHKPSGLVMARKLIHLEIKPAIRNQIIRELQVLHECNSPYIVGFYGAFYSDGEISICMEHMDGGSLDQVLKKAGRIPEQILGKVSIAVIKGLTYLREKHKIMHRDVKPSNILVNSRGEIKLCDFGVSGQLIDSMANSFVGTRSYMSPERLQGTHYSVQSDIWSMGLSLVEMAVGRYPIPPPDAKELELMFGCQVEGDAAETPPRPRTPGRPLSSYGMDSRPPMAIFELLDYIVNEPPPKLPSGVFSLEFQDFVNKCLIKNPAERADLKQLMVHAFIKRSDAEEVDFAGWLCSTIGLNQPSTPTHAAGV

Compound | % ROI Dog [1] | % ROI Human [2] | % ROI Dog [3] | % ROI Rat [4] | IC50 [5] | % ROI Rat [6] | % ROI Monkey [7] | % ROI Monkey [8] | increase of AUC of Compound 2 ([9]; after 21-day multiple BID dosing of Compound 1) | AUC of Compound 2 as % of the parent (median) ([9]; multiple dosing of Compound 1) | AUC of Compound 2 as % of the parent (median) ([9]; single dosing of Compound 1) | terminal plasma half-life compared with parent ([9]; patients, after oral Compound 1) | IC50 (MEK1) | % ROI Human [10] | target suppression of pERK in tumors (pERK in C26 tumors; 2 hours after 75 mg/kg IV) | pERK activity in tumors (pERK in C26 tumors; 24 hours after 75 mg/kg IV) | IC50 [11]
O=C(O)c1ccc(F)c(F)c1Nc1ccc(I)cc1F [Compound 2] | 2.46% | 11% and 11.07% | 4.12% | 1.86% | 1300 nM | 4.31% | 5.24% | 1.72% | 2.0-5.0 fold | ~120% | approximately 66% | longer than that of the parent drug | 66 nM | 9% and 8.73% | 98% | returned to control levels | –
O=C(NOC[C@@H](O)CO)c1ccc(F)c(F)c1Nc1ccc(I)cc1F [Compound 3] | – | – | – | – | – | – | – | – | – | – | – | – | – | – | – | – | 0.83 nM
